{"source": "patent US20170045513A1", "about": "“METHODS OF DIAGNOSING CELIAC DISEASE USING IP-10” (ImmusanT, Inc., priority 2014, published 2017)", "assay_type_in_all_cases": "cell-based, human", "key": {"gluten-reactive T cells [1]": {"tested_on": "gluten-reactive T cells", "experiment": "96-well plate whole blood cytokine release, IFNγ by MAGPIX multiplex bead assay", "conditions": "for IFNγ WB MAGPIX % max Mean: n = 8, blood after oral gluten challenge, individual peptides 5 μM (Peptide 2* of P14, Pepscan: 10 μg/mL (5.45 μM)); for Percent of maximal response to individual gluten peptides, IFNg: after oral gluten challenge"}, "gluten-reactive T cells [2]": {"tested_on": "gluten-reactive T cells", "experiment": "96-well plate whole blood cytokine release, IP-10 by MAGPIX multiplex bead assay", "conditions": "for Percent of maximal response to individual gluten peptides, IP-10: after oral gluten challenge; for IP-10 WB MAGPIX % max Mean: n = 10, blood after oral gluten challenge, individual peptides 5 μM (Peptide 2* of P14, Pepscan: 10 μg/mL (5.45 μM))"}, "gluten-reactive T cells [3]": {"tested_on": "gluten-reactive T cells", "experiment": "Overnight IFNγ ELISpot assay with fresh PBMC", "conditions": "for IFNγ ELISpot % max Mean: n = 5, blood after oral gluten challenge, individual peptides 5 μM (Peptide 2* of P14, Pepscan: 10 μg/mL (5.45 μM)); for Percent of maximal response to individual gluten peptides, ELISp: after oral gluten challenge", "method": "HLA-DQ2.5-positive celiac disease subjects on gluten-free diet were used in this study. Blood was collected immediately before and 6 days after commencing 3-day oral gluten challenge. Whole blood or PBMCs were incubated with pools or single peptides derived from gluten or recall antigens. IFNγ and IP-10 levels were measured in plasma from the whole blood that was incubated in 96-well plates with peptides or peptide pools. Plasma cytokine/chemokine levels were measured by MAGPIX® multiplex bead assay (IFNγ and IP-10) or by ELISA (IFNγ and IP-10), and PBMC separated from the same blood sample were incubated in overnight IFNγ ELISpot assays.\nOvernight IFNγ ELISpot assays (Human IFN-γ ELISpotPRO kit, transparent, ALP; Mabtech AB, #3420-2APT-10) were performed using PBMC freshly separated from heparinized blood diluted 1:1 in PBS with 2% fetal bovine serum (Stemcell Technologies #07905; Vancouver, BC, V5Z 1B3, Canada) overlaid on density gradient medium (Ficoll-Paque™ PLUS; GE Healthcare Lice Sciences #:17-1440-02) in SepMate™-50 tubes (Stemcell Technologies #15460). PBMC (8 million/mL) were resuspended in serum-free medium with gentamicin and phenol red (X-VIVO™15; Lonza, Walkersville Mass. 21793). PBMC (0.4 million/50 pt/well) and incubated with 50 μL 80% X-vivo15, 0.2% DMSO and 20% PBS in three triplicate wells (“medium only”), or with 50 μL PHA-L 20 μg/ml or peptide at 2× final concentration in 80% X-vivo15, 0.2% DMSO and 20% PBS. Peptide solutions to be added to individual ELISpot wells were prepared in 96-well U-bottom plates (60 pt/well) that were then sealed with adhesive ELISA plate cover slips before replacing the plastic lid and being frozen at −80° C. 96-well plates containing peptide solutions were thawed at room temperature for 10 min while being centrifuged at 300 g immediately prior to being added to ELISpot wells. Peptide pools and mitogen were assessed in triplicate wells, and individual peptides were assessed in duplicate wells. X-VIVO™15 (50 μL) was incubated with 80% X-vivo15, 0.2% DMSO and 20% PBS (50 μL) in triplicate wells (“no PBMC” control). A Zeiss automated ELISpot counter was used to determine spot forming units (SFU) per well (Zellnet Inc., Fort Lee, N J 07024). Laboratory staff were unaware of the arrangement of peptide solutions in ELISpot wells during assay setup and plate counting."}, "gluten-reactive T cells [4]": {"tested_on": "gluten-reactive T cells", "experiment": "Cytokine release assays taken together (IFNγ ELISpot, whole blood IFNγ and IP-10, in-tube IFNγ ELISA)", "method": "Gluten peptide solutions for addition to whole blood were arranged according to standardized templates in sterile 96-well U-bottom plates (30 μL/well). Plates were sealed with adhesive ELISA plate cover slips before the plastic lid was replaced and being frozen at −80° C. Whole blood assay (WBA) “medium” (1% DMSO in 90% PBS and 9% normal saline), mitogen (PHA-L, Sigma-Aldrich #L2769; St Louis Mo.) 100 μg/ml in WBA medium, and CEF diluted to 10 μg/ml in PBS with a final concentration of 1% DMSO were frozen separately in sterile cryovials. 96-well plates and cryovials with frozen incubation solutions were shipped on dry ice to the clinical site where blood was collected and incubations performed. Solutions were thawed at room temperature for 10 min just before being added to whole blood. 96-well plates were thawed while being centrifuged at 300 g to avoid surface condensation. A multi-channel pipette was used to efficiently transfer 25 μL of peptide solutions from the original 96-well plate to corresponding wells in a fresh sterile 96-well U-bottom plate. Once incubation solutions had been added, 225 μL of whole blood was added to each well and the plate transferred to incubate for 24 h at 37° C. 5% CO2. […] Individual peptides were incubated at a final assay concentration of 51.1M. Final concentrations of individual peptides assessed in P3 was 0.05-50 μg/mL, and in P14 and P13 pools 0.025-25 μM. The P71 pool was tested at between 0.005-10 pg/mL, the highest tested concentration being the maximal possible not exceeding 0.1% DMSO. Peptide pools, mitogen, and medium only were assessed in triplicate wells, and on Day-6 individual peptides were assessed in duplicate wells. Incubations were terminated after 24 h, and 96-well plates centrifuged at 300 g for 10 min. A total of approximately 90 to 120 μL of plasma was removed from each well taking care to avoid red cell contamination, and transferred into corresponding wells of two further 96-well plates (one with 30 μL/well and the residual in the second plate). Plasmas were frozen at −80° C. and later shipped on dry ice to the central lab where IP-10 and IFNγ multiplex bead assays were performed according to manufacturer's instructions using 25 μL plasma per well (Milliplex® MAP Human Cytokine/Chemokine Magnetic Bead Panel #HCYTOMAG-60k-02; EMD Millipore Corp., Billerica, Mass. 01821) and analysed with the Luminex® MAGPIX® System xPONENT® software (Luminex Corporation, Austin Tex. 78727). Plasma cytokine levels for each assay condition were expressed as the mean analyte concentration of each of the three replicate incubations. Laboratory staff were unaware of the arrangement of peptide solutions incubated with during assay setup and plate counting.\nAliquots of PBS, P3 peptides diluted in PBS (final concentration in blood 3× 50 or CEF to a final concentration 1 μg/mL were prepared in sterile cryovials (0.11 mL/vial) and stored frozen (−80° C.) until immediately before use. P3, CEF and two PBS aliquots were drawn up in separate sterile 0.3 mL insulin syringes with attached 29G×½″ needle (Terumo, SS*30M2913; Elkton Md. 21921). P3, CEF and one PBS aliquot was injected through the stoppers of three separate QuantiFERON® NIL tubes already containing 1 mL blood, and one aliquot of PBS was injected into a QuantiFERON® MITOGEN tube already containing 1 mL blood. All four tubes containing blood and incubation solution were gently inverted ten-times and transferred to incubate at 37° C. 5% CO2. After for 24 h, tubes were centrifuged 300 g 10 min. Plasma was separated and equal volumes placed in two 1.5 mL cryovials. Frozen plasmas were transferred to the central lab where IFNγ levels were measured in triplicate 50 μL samples by ELISA (MABtech Human IFN-γ ELISA development kit HRP, 3420-1H-6; capture mAb 1-D1K). […]"}}, "note": "Non-standard residues stand in square brackets, D forms with d. pGlu = O=C1CC[C@@H](C(=O)O)N1"}
{"substance": "(pE)QPFPQPEQPFPWQP-amide ([pGlu]QPFPQPEQPFPWQP-NH2; SMILES NC(=O)CC[C@H](NC(=O)[C@H](Cc1c[nH]c2ccccc12)NC(=O)[C@@H]1CCCN1C(=O)[C@H](Cc1ccccc1)NC(=O)[C@@H]1CCCN1C(=O)[C@H](CCC(N)=O)NC(=O)[C@H](CCC(=O)O)NC(=O)[C@@H]1CCCN1C(=O)[C@H](CCC(N)=O)NC(=O)[C@@H]1CCCN1C(=O)[C@H](Cc1ccccc1)NC(=O)[C@@H]1CCCN1C(=O)[C@H](CCC(N)=O)NC(=O)[C@@H]1CCC(=O)N1)C(=O)N1CCC[C@H]1C(N)=O) [Peptide 2, two preparations tested separately: CSBio (5 μM) and Pepscan re-synthesis (10 μg/mL)]", "values": [{"measurement": "IFNγ WB MAGPIX % max Mean", "setting": "gluten-reactive T cells [1]", "value": 23, "unit": "% max"}, {"measurement": "IFNγ WB MAGPIX % max Mean", "setting": "gluten-reactive T cells [1]; listed as Peptide 2*", "value": 27, "unit": "% max"}, {"measurement": "Percent of maximal response to individual gluten peptides, IP-10", "setting": "gluten-reactive T cells [2]; Subject 3, Max. 9492 pg/mL", "value": "≥ 100 % of max"}, {"measurement": "Percent of maximal response to individual gluten peptides, IP-10", "setting": "gluten-reactive T cells [2]; Subject 4, Max. 9463 pg/mL", "value": "≥ 100 % of max"}, {"measurement": "IP-10 WB MAGPIX % max Mean", "setting": "gluten-reactive T cells [2]", "value": 43, "unit": "% max"}, {"measurement": "IP-10 WB MAGPIX % max Mean", "setting": "gluten-reactive T cells [2]; listed as Peptide 2*", "value": 49, "unit": "% max"}, {"measurement": "IFNγ ELISpot % max Mean", "setting": "gluten-reactive T cells [3]", "value": 19, "unit": "% max"}, {"measurement": "IFNγ ELISpot % max Mean", "setting": "gluten-reactive T cells [3]; listed as Peptide 2*", "value": 25, "unit": "% max"}, {"measurement": "activity relative to Peptide 14 in the cytokine release assays", "setting": "gluten-reactive T cells [4]; blood collected after oral gluten challenge", "value": "approximately one-half to one-fifth as active as Peptide 14"}]}
{"substance": "(pE)GQQGYYPTSPQQSG-amide ([pGlu]GQQGYYPTSPQQSG-NH2; SMILES C[C@@H](O)[C@H](NC(=O)[C@@H]1CCCN1C(=O)[C@H](Cc1ccc(O)cc1)NC(=O)[C@H](Cc1ccc(O)cc1)NC(=O)CNC(=O)[C@H](CCC(N)=O)NC(=O)[C@H](CCC(N)=O)NC(=O)CNC(=O)[C@@H]1CCC(=O)N1)C(=O)N[C@@H](CO)C(=O)N1CCC[C@H]1C(=O)N[C@@H](CCC(N)=O)C(=O)N[C@@H](CCC(N)=O)C(=O)N[C@@H](CO)C(=O)NCC(N)=O) [Peptide 10]", "values": [{"measurement": "Percent of maximal response to individual gluten peptides, IFNg", "setting": "gluten-reactive T cells [1]; Subject 2, Max. 116 pg/mL", "value": "23 % of max"}, {"measurement": "Percent of maximal response to individual gluten peptides, IFNg", "setting": "gluten-reactive T cells [1]; Subject 3, Max. 799 pg/mL", "value": "0 % of max"}, {"measurement": "Percent of maximal response to individual gluten peptides, IFNg", "setting": "gluten-reactive T cells [1]; Subject 4, Max. 136 pg/mL", "value": "0 % of max"}, {"measurement": "Percent of maximal response to individual gluten peptides, IFNg", "setting": "gluten-reactive T cells [1]; Subject 6, Max. 72 pg/mL", "value": "0 % of max"}, {"measurement": "Percent of maximal response to individual gluten peptides, IFNg", "setting": "gluten-reactive T cells [1]; Subject 7, Max. 17 pg/mL", "value": "0 % of max"}, {"measurement": "Percent of maximal response to individual gluten peptides, IFNg", "setting": "gluten-reactive T cells [1]; Subject 8, Max. 47 pg/mL", "value": "0 % of max"}, {"measurement": "Percent of maximal response to individual gluten peptides, IFNg", "setting": "gluten-reactive T cells [1]; Subject 9, Max. 67 pg/mL", "value": "0 % of max"}, {"measurement": "Percent of maximal response to individual gluten peptides, IFNg", "setting": "gluten-reactive T cells [1]; Subject 10, Max. 229 pg/mL", "value": "9 % of max"}, {"measurement": "IFNγ WB MAGPIX % max Mean", "setting": "gluten-reactive T cells [1]", "value": 4, "unit": "% max"}, {"measurement": "Percent of maximal response to individual gluten peptides, IP-10", "setting": "gluten-reactive T cells [2]; Subject 1, Max. 2331 pg/mL", "value": "0 % of max"}, {"measurement": "Percent of maximal response to individual gluten peptides, IP-10", "setting": "gluten-reactive T cells [2]; Subject 2, Max. 3646 pg/mL", "value": "0 % of max"}, {"measurement": "Percent of maximal response to individual gluten peptides, IP-10", "setting": "gluten-reactive T cells [2]; Subject 3, Max. 9492 pg/mL", "value": "0 % of max"}, {"measurement": "Percent of maximal response to individual gluten peptides, IP-10", "setting": "gluten-reactive T cells [2]; Subject 4, Max. 9463 pg/mL", "value": "0 % of max"}, {"measurement": "Percent of maximal response to individual gluten peptides, IP-10", "setting": "gluten-reactive T cells [2]; Subject 6, Max. 5863 pg/mL", "value": "0 % of max"}, {"measurement": "Percent of maximal response to individual gluten peptides, IP-10", "setting": "gluten-reactive T cells [2]; Subject 7, Max. 2330 pg/mL", "value": "0 % of max"}, {"measurement": "Percent of maximal response to individual gluten peptides, IP-10", "setting": "gluten-reactive T cells [2]; Subject 10, Max. 8922 pg/mL", "value": "9 % of max"}, {"measurement": "IP-10 WB MAGPIX % max Mean", "setting": "gluten-reactive T cells [2]", "value": 1, "unit": "% max"}, {"measurement": "Percent of maximal response to individual gluten peptides, ELISp", "setting": "gluten-reactive T cells [3]; Subject 3, Max. 18 SFU", "value": "17 % of max"}, {"measurement": "Percent of maximal response to individual gluten peptides, ELISp", "setting": "gluten-reactive T cells [3]; Subject 4, Max. 36 SFU", "value": "3 % of max"}, {"measurement": "Percent of maximal response to individual gluten peptides, ELISp", "setting": "gluten-reactive T cells [3]; Subject 8, Max. 17 SFU", "value": "0 % of max"}, {"measurement": "Percent of maximal response to individual gluten peptides, ELISp", "setting": "gluten-reactive T cells [3]; Subject 10, Max. 11 SFU", "value": "9 % of max"}, {"measurement": "IFNγ ELISpot % max Mean", "setting": "gluten-reactive T cells [3]", "value": 8, "unit": "% max"}, {"measurement": "cytokine release / immunogenicity of individual peptide", "setting": "gluten-reactive T cells [4]; HLA-DQ2.5+ celiac disease subjects after gluten challenge", "value": "weak or not distinguishable from medium alone"}]}
